Measurements from US20260144862A1, “MATERIALS AND METHODS TO TREAT EPSTEIN-BARR VIRUS (EBV) AND EBV-INDUCED DISEASES” (Medizinische Universität Wien, priority 2022, published 2026).

Experiments:
[1] = system: NKG2A+ CD8+ T cells; assay: NKG2A+ CD8+ T cell inhibition assay; type: cell-based, human; details: K562-HLA-E*0101/0101 or K562-HLA-E*0103/0103 target cells pulsed with 300 μM peptide
Protocol: For the CD8^+ T cells experiments, CD8^+ MACS-enriched cells were quickly thawed at 37° C., washed once, and pre-activated overnight in RPMI, 10% FCS, 1% L-glutamine and 20 ng/ml IL-2 (PeproTec) at 37° C. CD8^+ T cells were then harvested by centrifugation (400×g, 5 min) and then washed once with Opti-MEM I Reduced Serum Medium. CD8^+ T cells were then cultured together with peptide pulsed K562-HLA-E*0101/0101 or K562-HLA-E*0103/0103 cells (E:T, 1:2), 1× monensin and 1× brefeldin A for 6 h. […] were harvested, fixed with the FIX & PERM Cell Fixation & Cell Permeabilization Kit and analysed by flow-cytometry, as described below.

[2] = system: NKG2A+ NKG2C−NKG2D− NK cells; assay: NKG2A+ NK cell inhibition by LMP-1 peptide-transfected GlialCAM370-389-specific B-cells (IFNγ ELISA); type: cell-based, human; details: LMP-1 peptide-pulsed GlialCAM370-389-specific B-cells, E:T 1:1, 6 h
Protocol: (§1) For the HLA-E stabilization experiments, 5×10^6 viable CFSE stained PBMCs were cultured in RPMI-1640+10% FCS in the presence of 10 μg GlialCAM370-389 ([…]), 10 μg of random 20 amino acid peptides (negative control, GenScript) or without peptides (non-peptide control) and 10 ng/mL IL-2 (Peprotech) at 37° C. Every three days, fresh 10 μg GlialCAM370-389 and 10 ng/mL IL-2 were added. After 7 days of co-culture, GlialCAM370-389-specific B-cells were sorted. 1×10^5 GlialCAM370-389-specific B-cells were then individually transfected with the indicated concentrations of the LMP-1 peptides (Peptides&Elephants) using the Pierce Protein Transfection Reagent according to the manufacturer's instructions (Thermo Fisher). After 16 h, the cells were either fixed and analyzed for HLA-E expression by flow cytometry, as described below, or washed once with Opti-MEM I Reduced Serum Medium (Gibco) and subsequently used in NKG2A^+ NK cell inhibition experiments. For the NKG2A^+ NK cell inhibition experiments, sorted NKG2A^+NKG2C^−NKG2D^− NK cells from 24 healthy blood donors were cultured together with peptide-pulsed GlialCAM370-389 B-cells (E:T, 1:1) for 6 h at 37° C. After co-cultivation, the supernatant was removed, cleared by centrifugation (1000×g, 5 min), and analyzed using IFNγ ELISA according to the manufacturer's recommendations (Thermo Fisher).

[3] = system: NKG2A+ NK cells; assay: NKG2A+ NK cell inhibition assay; type: cell-based, human; details: K562-HLA-E*0101/0101 or K562-HLA-E*0103/0103 target cells pulsed with 300 μM LMP-1 peptide
Protocol: For the NKG2A^+ NK cell inhibition experiments, MACS-enriched CD56^+ cells were quickly thawed at 37° C., washed, and pre-activated overnight in RPMI, 10% FCS, 1% L-glutamine (all: Thermo Fisher Scientific), 10 ng/ml IL-12 (PeproTec) and 100 ng/ml IL-18 (Biozym Scientific) at 37° C. CD56^+ NK cells were then harvested by centrifugation at 400×g for 5 minutes and washed once with Opti-MVEM I Reduced Serum Medium (Gibco). The NK cells were then cultured together with peptide pulsed K562-HLA-E*0101/0101 or K562-HLA-E*0103/0103 cells (E:T, 1:2) and 5 μL mouse anti-human CD107-APC-H7 (BD) for 6 h. NK cells were then harvested, fixed with the FIX & PERM Cell Fixation & Cell Permeabilization Kit (Thermo-Scientific) and analysed by flow-cytometry, as described below.

[4] = system: EBV B95-8 isolate; assay: Virus (EBV) dissemination assay in K562-CR2-HLA-E cells; type: cell-based, Epstein-Barr virus; details: for viral spread (BZLF1+ K562-CR2-HLA-E cells); effect of peptide on NKG2A+ NK or NKG2A+ CD8+ T cell mediated prevention of the viral spread: 300 μM LMP-1 peptide, 2-14 days of co-culture; for inhibition of NKG2A+ CD8+ T cells in EBV-dissemination assay (granzyme B-expressing cells) / inhibition of NKG2A+ NK cells in EBV-dissemination assay (granzyme B-expressing cells): peptide-pulsed K562-CR2-HLA-E*0103/0103 and K562-CR2-HLA-E*0101/0101 cells; for inhibition of NKG2A+ CD8+ T cells in EBV-dissemination assay (granzyme B-expressing cells): sorted NKG2A+ CD8+ T cells; for inhibition of NKG2A+ NK cells in EBV-dissemination assay (granzyme B-expressing cells): sorted NKG2A+ NK cells
Protocol: For the virus dissemination assays, the marmoset B-lymphoblastoid cell line B95-8 was cultured in RPM1 1640 medium supplemented with 20 mM glutamine, 50 µg/ml gentamicin, 0.2 µg/ml amphotericin B and 10% FCS (Thermo-Scientific). Cells were then cultured in the presence of […] (Biomol) for two weeks. EBV was harvested from the supernatant and enriched by ultracentrifugation (30000 U/min, 90 min, 10° C.). The virus stocks were stored at −80° C. in RPMI 1640 medium+10% FCS+10% DMSO (all: Thermo-Scientific). The multiplicity of infection (MOI) of the viral stocks was determined on K562-CR2-HLA-E*0101/0101 and K562-CR2-HLA-E*0103/0103 cells by flow-cytometry.
RMA-S/HLA-E/LFA-3 cells (kindly provided by Chiara Romagnani, DRFZ, Berlin) were maintained in RPMI-1640+20 mM glutamine+10% FCS+20 μM β-mercaptoethanol+100 U/ml penicillin-streptomycin (all Thermo Fisher)+400 μg/ml hygromycin B+1 mg/ml G418 (both InvivoGen). 2×10^6 RMA-S/LFA3/HLA-E cells were incubated for 16 h at 37° C., 5% CO2, with 300 μM of respective peptides (Peptides&Elephants) in 1 ml serum-free OptiMEM (Thermo-Fisher). Cells were afterwards inactivated using 20 μg/mL Mitomycin C (Sigma Aldrich) at 37° C. for 30 minutes. Peptide pulsed RMA-S/LFA3/HLA-E cells were co-cultured with […] CFSE (Thermo-Fisher) stained CD56^+ or CD8^+ MACS-enriched cells for 7 days in RPMI+10% FCS. Proliferating (CFSE^low) NKG2A^+CD56^+ NK cells, NKG2A^+ CD8^+ T cells or […]-specific, HLA-E-restricted NKG2A^+ or NKG2A^− T cells were then sorted by FACS as described below.
Fresh K562-CR2-HLA-E*0101/0101 and K562-CR2-HLA-E*0103/0103 cells were then inactivated using 20 μg/mL Mitomycin C at 37° C. for 30 minutes and then infected with the EBV B95-8 isolate (MOI=1) for 24 h. The infected cells were then co-cultured together with the sorted NKG2A^+ CD56^+ NK cells, NKG2A^+ CD8^+ T cells or […]-specific, HLA-E-restricted NKG2A^+ or NKG2A^− T cells (E:T, 1:2). In some experiments, 300 μM of respective peptides was also added. At indicated time points, the cells were harvested and analyzed by flow-cytometry, as described below.

[5] = system: HLA-E; assay: LMP-1 dependent HLA-E up-regulation assay in GlialCAM370-389-specific B-cells; type: cell-based, human; details: B-cells from 24 healthy blood donors transfected with LMP-1 peptide, 16 h
Protocol: as §1

[6] = system: NKG2A+ NKG2D−NKG2C− NK cells; assay: NK cell inhibition assay with GlialCAM370-389-specific cells, with or without NKG2A-blocking antibody (IFNγ ELISA); type: cell-based, human; details: 10 μg/mL antibody, 12 h co-culture
Protocol: For the NK cell inhibition assays, GlialCAM370-389-specific (CFSE^low) CD4^+ T-cells, CD8^+ T-cells, and CD138^+ plasma cells were sorted and co-cultured together in an E:T ratio of 1:1 with sorted CD56^+NKG2A^+ NKG2D^−NKG2C^− NK cells from 24 healthy blood donors in OptiMem (Thermo Fisher) for 12 h at 37° C. For some experiments α-NKG2A blocking monoclonal antibodies (Monalizumab, 10 μg/mL, Innate Pharma) was added to the co-culture. The supernatant was removed, cleared by centrifugation (1000×g, 5 min), and then used for IFNγ (both Thermo Fisher) according to the manufacturer's instructions.

Molecule	inhibition of NKG2A+ CD8+ T cells (IFNγ-expressing NKG2A+ CD8+ T cells) [1]	inhibition of NKG2A+ cells (IFNγ concentration in the supernatant) [2]	inhibition of NKG2A+ NK cells [3]	viral spread (BZLF1+ K562-CR2-HLA-E cells); effect of peptide on NKG2A+ NK or NKG2A+ CD8+ T cell mediated prevention of the viral spread [4]	inhibition of NKG2A+ CD8+ T cells in EBV-dissemination assay (granzyme B-expressing cells) [4]	inhibition of NKG2A+ NK cells in EBV-dissemination assay (granzyme B-expressing cells) [4]	upregulation of HLA-E on the surface of GlialCAM370-389-specific B-cells [5]	inhibition of NKG2A+ cells by GlialCAM370-389-specific cells from patients with MS when NKG2A-blocking antibody is added [6]
GGDPHLPTL [EBV LMP-1 peptide variant]	potent inhibition	potently inhibited	potent inhibition	increased viral spread	caused the inhibition	caused the inhibition	stable upregulation of HLA-E	
GGDPPLPTL [EBV LMP-1 peptide variant]	potent inhibition	potently inhibited	potent inhibition	increased viral spread	caused the inhibition	caused the inhibition	stable upregulation of HLA-E	
Monalizumab: α-NKG2A blocking monoclonal antibodies (Innate Pharma) (antibody, chains of the INN, looked up, V domains shown) VH: QVQLVQSGAEVKKPGASVKVSCKASGYTFTSYWMNWVRQAPGQGLEWMGRIDPYDSETHYAQKLQGRVTMTTDTSTSTAYMELRSLRSDDTAVYYCARGGYDFDVGTLYWFFDVWGQGTTVTVSS VL: DIQMTQSPSSLSASVGDRVTITCRASENIYSYLAWYQQKPGKAPKLLIYNAKTLAEGVPSRFSGSGSGTDFTLTISSLQPEDFATYYCQHHYGTPRTFGGGTKVEIK								reversible
